{
  "source": "patent US10633397B2",
  "about": "“Substituted polycyclic pyridone derivatives and prodrugs thereof” (priority 2015, dated 2020)",
  "key": {"physchem": {"test": "physchem", "assay_type": "physicochemical", "conditions": "thermodynamic from solid, 1 hour at 37° C.", "method": "Test Example 10: Powder Solubility Test\nAppropriate amounts of the compound of the present invention was put into vials and 200 μL of JP-1st Fluid (water was added to 2.0 g of sodium chloride in 7.0 mL of hydrochloride acid to reach 1000 mL), JP-2nd Fluid (water was added to 500 mL of phosphate buffer solution with a pH of 6.8) and 20 mmol/L sodium taurocholate (TCA)/JP-2nd Fluid (JP-2nd Fluid was added to 1.08 g of TCA in JP-2nd Fluid to reach 100 mL) was added to each vial. When the compound was completely dissolved, appropriate amount of compound was added. After shaken for 1 hour at 37° C., the mixture was filtered and 100 μL of methanol was added to 100 μL of each filtrate (double dilution). Dilution magnification was changed if necessary. After it was confirmed whether there were air bubbles and precipitates in the vials, the vials were shaken with tight stopper. The compound concentration was determined with HPLC by the absolute calibration method."}, "[1]": {"test_system": "red blood cells prepared from a defibrinated blood of sheep", "test": "Light hemolysis test", "assay_type": "cell-based", "conditions": "10 J/cm^2 UV-irradiation, 0.0008 to 0.1 w/v %", "method": "Test Example 12: Light Hemolysis Test\nThe compound of the present invention was dissolved at target concentrations and was mixed with a 2.5 v/v % suspension of red blood cells prepared from a defibrinated blood of sheep on a microplate at concentrations of 0.0008 to 0.1 w/v %. The mixtures were exposed to 10 J/cm^2 of UV-irradiation within a range of wavelength 290 to 400 nm, UVA and UVB using ultra violet fluorescent lamps, GL20SE and FL20S-BLB lamps manufactured by Sankyo Denki Co., Ltd. and Panasonic Corporation, respectively. After the completion of the irradiation, the mixtures were centrifuged, and a supernatant of the mixture was collected and was located on a microplate. The phototoxicity was assessed by measuring an absorbance at wavelength of 540 nm and 630 nm in the supernatant. The absorbance data at wavelength of 540 nm and 630 nm were used as indicators of biomembrane damage (photohemolysis %) and hyperoxidation of lipid membrane (methemoglobin formation), respectively. The criteria of phototoxicity was as follows; It was judged to be non-phototoxic (−) when the photohemolysis %<10 and the maximal change in the absorbance at 630 nm (ΔOD)<0.05 were observed. It was judged to be […] when the photohemolysis was more than 10% and the maximal change in the absorbance at 630 nm (ΔOD) was more than 0.05."}, "in vivo [2]": {"test": "in vivo", "conditions": "oral vs intravenous administration, mice or SD rats, read-out: bioavailability (BA)", "method": "Materials and Methods for Experiments to Evaluate Oral Absorption\n(1) Experimental animals: mice or SD rats were used.\n(2) Rearing condition: mice or SD rats were allowed free access to solid feed and sterilized tap water.\n(3) Setting of dosage and grouping: Oral administration and intravenous administration were performed with the predetermined dosage. Grouping was set as below. (Dosage was changed per compound)\nOral administration 1 to 30 mg/kg (n=2 to 3)\nIntravenous administration 0.5 to 10 mg/kg (n=2 to 3)\n(4) Preparation of administration solutions: Oral administration was performed as solution or suspension. Intravenous administration was performed after solubilization.\n(5) Routes of administration: Oral administration was performed mandatory into the stomach by oral sonde. […]\n(6) Evaluation items: Blood was collected serially and concentration of a compound of the present invention in plasma was measured by LC/MS/MS.\n(7) Statistical analysis: About transition of concentration of a compound of the present invention in plasma, the area under the plasma concentration versus time curve (AUC) was calculated by non-linear least-squares method program, WinNonlin (a registered trademark), and bioavailability (BA) of a compound of the present invention was calculated from AUCs of the oral administration group and the intravenous administration group. […]"}, "in vivo [3]": {"test": "in vivo", "conditions": "rat, SD rats, intravenous administration", "method": "Test Example 13: Intravenous Administration Test\nExamined experimental materials and method of intravenous administration test\n(1) Animals used: SD rats were used.\n(2) Rearing conditions: Pellets and sterilized tap water were fed to SD rats ad libitum.\n(3) Dosage and grouping: A predetermined dosage was intravenously administered. Groups were set as follows. (Dosage varied for each compound)\nIntravenous administration 0.5-1 mg/kg (n=2-3)\n(4) Preparation of administration solution: Intravenous administration was performed after solubilization.\n(5) Administration method: Intravenous administration was performed with a needle-equipped syringe on the caudal vein.\n(6) End point: Blood was collected over time, and the plasma concentration of the compound of the present invention was measured using LC/MS/MS.\n(7) Statistical analysis: As for the transition of the plasma concentration of the compound of the present invention, the total body clearance (CLtot) and the elimination half-life (t1/2, z) were calculated using nonlinear least-squares program WinNonlin®."}, "influenza virus": {"test_system": "influenza virus", "test": "CPE inhibitory effect confirming assay", "assay_type": "cell-based", "conditions": "unidentified influenza virus, 72 h, read-out: CPE_EC50"}, "[4]": {"test": "Metabolism stability test", "assay_type": "in vitro ADME", "conditions": "human liver microsomes, 30 minutes, 37° C., 2 μmol/L of test compound", "method": "Test Example 5: Metabolism Stability Test\nUsing commercially available pooled human hepatic microsomes, a compound of the present invention was reacted for a constant time, and a remaining rate was calculated by comparing a reacted sample and an unreacted sample, thereby, a degree of metabolism in liver was assessed.\nA reaction was performed (oxidative reaction) at 37° C. for 0 minute or 30 minutes in the presence of 1 mmol/L NADPII in 0.2 mL of a buffer (50 mmol/L Tris-HCl pH 7.4, 150 mmol/L potassium chloride, 10 mmol/L magnesium chloride) containing 0.5 mg protein/mL of human liver microsomes. After the reaction, 50 μL of the reaction solution was added to 100 μL of a methanol/acetonitrile=1/1 (v/v), mixed and centrifuged at 3000 rpm for 15 minutes. The compound of the present invention in the supernatant was quantified by LC/MS/MS or Solid Phase Extraction (SPE)/MS, and a remaining amount of the compound of the present invention after the reaction was calculated, letting a compound amount at 0 minute reaction time to be 100%. Hydrolysis reaction was performed in the absence of NADPII and glucuronidation reaction was in the presence of 5 mM UDP-glucuronic acid in place of NADPH, followed by similar operations."}},
  "note": "Where two headings read alike, the source gives them in different places.",
  "data": [
    {"smiles": "O=C1c2c(O)c(=O)ccn2N([C@@H]2c3ccccc3SCc3c2ccc(F)c3F)[C@@H]2COCCN12", "note": "[III-2]", "values": [
      {"measurement": "solubility", "setting": "physchem; pH 1.2, simulated gastric fluid, JP-1 solution, read-out: powder solubility, JP-1 solution", "result": 7.1, "unit": "µg/mL"},
      {"measurement": "solubility", "setting": "physchem; pH 6.8, aqueous buffer, JP-2 solution, read-out: powder solubility, JP-2 solution", "result": 4.4, "unit": "µg/mL"},
      {"measurement": "solubility", "setting": "physchem; pH 6.8, fassgf or other biorelevant, 20 mmol/L TCA/JP-2 solution", "result": 16.1, "unit": "µg/mL"},
      {"measurement": "phototoxicity", "setting": "[1]", "result": "(−) (It was judged to be non-phototoxic (−) when the photohemolysis %<10 and the maximal change in the absorbance at 630 nm (ΔOD)<0.05 were observed)"},
      {"measurement": "bioavailability", "setting": "in vivo [2]", "result": 4.2, "unit": "%"},
      {"measurement": "half-life", "setting": "in vivo [3]; read-out: elimination half-life (t1/2, z) (converted)", "result": 3.4, "unit": "h"},
      {"measurement": "clearance", "setting": "in vivo [3]; read-out: total body clearance (CLtot)", "result": 16.4, "unit": "mL/min/kg"},
      {"measurement": "EC50", "setting": "influenza virus", "result": 1.13, "unit": "nM"},
      {"measurement": "% compound remaining after microsomal incubation", "setting": "[4]", "result": 90.1, "unit": "%"}
    ]}
  ]
}
